Consider 4 sequences from US12589143B2, “Human anti-PD-L1 peptide vaccines and methods of their use” (priority 2019, dated 2026).

In this assay the test system is CT26/HER-2 carcinoma cell line. Nature of the assay: CT26/HER-2 tumor challenge in immunized Balb/c mice. The class given is in vivo. To be noted: for tumor growth inhibition: CT26/HER-2, day 16. From the text:
(PMID: 29337305). […] Balb/c mice 6-8 weeks old, were immunized with MVF-peptide immunogens emulsified in ISA 720 with nor-MDP three times and three weeks apart. Mice were immunized with MVF-PD-L1 vaccine constructs [PD-L1(36-53), PD-L1(50-67), PD-L1(95-112), PD-L1(130-147)] prior to tumor challenge. Blood was collected weekly and sera tested for antibody titers by ELISA. Two weeks after the third immunization (3Y), the mice were engrafted with CT26 WT tumor cells 10^5 per mouse Control mice were treated twice weekly with PBS as negative control and twice weekly with anti-mPD-L1 mAb (10F.9G2) as positive control starting 2 days after tumor challenge. Tumor growths were observed twice weekly and measured by calipers.
Vaccines were dissolved in water and emulsified in Montanide ISA 720 (1:1) and 50 μg nor-MDP (N-acetylglucosamine-3yl-acetyl-1-alanyl-d-isoglutamine). Female Balb/c mice (Charles River Laboratories) at the age of 5 to 6 week were immunized three times at 3-week intervals with 100 μg of each peptide vaccine, and 2 weeks after the third immunization, the mice were challenged s.c. with CT-26-HER2 neu tumor cells (100,000 per mouse).
Mice treated twice a week with anti-mouse PD-L1 MAb 10F.9G2 (Bio X Cell, West Lebanon, NH) 200 ug/dose was used as a positive control or purified mouse IgG from mouse sera (Sigma-Aldrich, St. Louis, Mo) as a negative control. Tumor growth was monitored for up to 21 days after challenge. During immunization, blood was drawn biweekly and used in ELISA to monitor Ab titers. The mice were euthanized at the end of treatment and tumors extracted and weighed samples of the tumors were saved for further study and for histological examination.
Two weeks after the third immunization (3Y), the mice were inoculated subcutaneously (s.c) with CT26 carcinoma cells (1×10^5 cells per mouse) and tumor formation was monitored on a daily basis afterwards. Mice treated with PBS served as negative control, and twice weekly treated mice with 200 μg/dose injections of anti-mouse PD-L1 monoclonal antibody (mAb clone 10F.9G2) served as positive control. Tumor growth was monitored daily and measured by caliper. […] PD-L1 B-cell epitope vaccines treatment had similar and significant reduction in tumor growth at day 16 post challenge as compared to negative control treatment with PBS (FIG. 19). […] Tumor sizes at various times are also shown in FIG. 20 and one-way analysis of variance (one-way ANOVA) followed by the Tukey's multiple comparisons test were used to compare data in multiple groups or data between groups.
We also analyzed the different isotypes of antibodies being generated by vaccination.
6-8 weeks old BALB/c mice (Charles River, Wilmington, MA) were used as standard animal models. Mouse CT26 colon carcinoma cell line was purchased from American Type Culture Collection Cells and were regularly cultured in RPMI1640 medium containing 10% FBS. CT26/HER2 cells were kindly provided by M. Penichet. Vaccines were dissolved in sterile water and emulsified in Montanide ISA 720 (1:1). Female Balb/c mice (Charles River Laboratories) at the age of 6-8 weeks were immunized three times at 3-week intervals with 100 μg of each peptide vaccine, and 2 weeks after the third immunization, the mice were challenged with CT26 and/or CT26/HER-2 tumor cells, which were implanted subcutaneously (s.c) on the right flank (1×10^5 per mouse). 200 μg of rat α-mouse PD-L1 mAb 10F.9G2 (Bio X Cell, West Lebanon, NH) were administered intraperitoneally (i.p.), twice weekly following tumor inoculation in the control group. Mice were monitored and scored for the formation of palpable tumors on a daily basis and sacrificed if tumors became necrotic or exceeded the predetermined size of 2,000 mm^3. Tumor volumes were measured in cubic millimeters with calipers and calculated with the following formula: A×B^2×0.5, where A is the largest diameter, and B is the widest point perpendicular to length. […]

Where no end group is shown, it is not given here.

For the sequence “KLLSLIKGVIVHRLEGVEGPSLFVHGEEDLKVQHSSYRQR (KLLSLIKGVIVHRLEGVEGPSLFVHGEEDLKVQHSSYRQR-NH2) [PD-L1(50)]”, the tumor growth inhibition result was “strongest tumor growth inhibition”.
Turning to “KLLSLIKGVIVHRLEGVEGPSLLIVYWEMEDKNIIQFVHG (KLLSLIKGVIVHRLEGVEGPSLLIVYWEMEDKNIIQFVHG-NH2) [PD-L1(36)]”, the tumor growth inhibition result is “strongest tumor growth inhibition”.
Take “KLLSLIKGVIVHRLEGVEGPSLVTSEHELTCQAEGYPKAE (KLLSLIKGVIVHRLEGVEGPSLVTSEHELTCQAEGYPKAE-NH2) [PD-L1(130)]”: the tumor growth inhibition entry is “strongest tumor growth inhibition”. Under “CT26/HER-2”, the levels of lesions entry was “lowest levels of lesions” and the “percentage of tumor growth inhibition compared to negative control” value is reported as “Significant higher percentage of tumor growth inhibition”. Besides, the “tumor inhibition versus PBS” value (CT26/HER-2, Balb/c) is listed as “superior tumor growth inhibition”. Further, the survival rate result (CT26/HER-2, Kaplan-Meier method) is “highest survival rate”. For the same sequence, the “50% mice survival time / survival rate” value (CT26 HER2, compared to the other PD-L1 epitopes) was “better survival rate”.
For “KLLSLIKGVIVHRLEGVEGPSLYRCMISYGGADYKRITVK (KLLSLIKGVIVHRLEGVEGPSLYRCMISYGGADYKRITVK-NH2) [PD-L1(95)]”, the tumor growth inhibition result is reported as “strongest tumor growth inhibition”.
